{"source": "paper PMC5740381", "about": "(Antimicrobial Agents and Chemotherapy, 2017)", "key": {"[1]": {"system": "HCV genotype 1a replicon cells", "experiment": "Drug-resistant colony selection in replicon cells", "type": "cell-based, Hepatitis C virus", "conditions": "10× EC50, about 3 weeks", "excerpt": "(§1) . After approximately 3 weeks of treatment, the surviving replicon colonies in one plate for each selection condition were stained with crystal violet and counted, whereas approximately 20 to 30 colonies in a replicate plate or most of the colonies, if less than 20 colonies survived the selection, were picked and further expanded for genotyping. The expanded colonies were lysed in CellsDirect lysis buffer (Invitrogen, MA), and the NS3-coding region from each colony was amplified by reverse transcription-PCR and sequenced. For genotype 1a, 1b, 2a, and 5a colonies, the full-length NS3 sequence was determined, whereas for colonies of the chimeric replicon containing the N-terminal region of NS3 from genotype 2b, 3a, 4a, or 6a, the sequence encoding the NS3 N-terminal region was determined. We defined a substitution in a replicon to be an amino acid difference in a sequence from a posttreatment sample relative to the sequence of the corresponding untreated sample. For resistance selection studies, NS3 substitutions detected at the following amino acid positions associated with resistance to the HCV PI class in >2 colonies in each replicon selection are reported: 36, 43, 54, 55, 56, 80, 122, 155, 156, and 168. In addition, substitutions detected at other amino acid positions in the NS3 protease domain in >2 colonies in each replicon selection are also reported.\n(§2) […]. The drug-resistant colonies were fixed and stained with crystal violet, and the number of colonies was determined."}, "[2]": {"system": "HCV genotype 1b replicon cells", "experiment": "Drug-resistant colony selection in replicon cells", "type": "cell-based, Hepatitis C virus", "conditions": "10× EC50, about 3 weeks", "excerpt": "as §1, §2"}, "[3]": {"system": "genotype 1b Con1 replicon cells", "conditions": "genotype 1b replicon cells; cited from earlier work"}}}
{"compound": "COC(=O)N[C@H](C(=O)N1CCC[C@H]1c1nc2cc([C@H]3CC[C@H](c4cc5nc([C@@H]6CCCN6C(=O)[C@@H](NC(=O)OC)[C@@H](C)OC)[nH]c5cc4F)N3c3cc(F)c(N4CCC(c5ccc(F)cc5)CC4)c(F)c3)c(F)cc2[nH]1)[C@@H](C)OC", "note": "[Pibrentasvir, reference compound]", "values": [{"measurement": "Colony survival", "setting": "[1]", "value": 0.0065, "unit": "%"}, {"measurement": "Colony survival", "setting": "[2]", "value": 0, "unit": "%"}, {"measurement": "Colony survival", "setting": "[2]; listed as pibrentasvir", "value": "no genotype 1b replicon cells survived"}, {"measurement": "EC50", "setting": "[3]", "value": 4.3, "unit": "pM"}]}
